Assay results reported in ChEMBL document CHEMBL4052670, “The selective cytotoxicity of new triazene compounds to human melanoma cells” (Bioorg Med Chem, 2017).
pIC50: −log10 of the molar value.

Legend:
[1] = Half life in deuterated phosphate buffer at pH 7.8 by 1H-NMR spectra analysis; format: physicochemical
[2] = system: B16-F10; assay: Cytotoxicity against mouse B16F10 cells after 72 hrs by MTS assay; format: functional, cell-based; conditions: B16-F10, 72 h
[3] = Cytotoxicity against human MNT1 cells after 72 hrs by MTS assay; format: functional, cell-based; conditions: MNT-1, 72 h
[4] = Apparent partition coefficient, log P of the compound in 1-octanol/phosphate buffer at pH 7.4 measured after 30 mins by HPLC analysis; format: physicochemical; conditions: read-out: LogD7.4
[5] = Half life in 80% human plasma by HPLC analysis; format: ADME, cell-free
[6] = system: HaCaT; assay: Cytotoxicity against human HaCaT cells after 72 hrs by MTS assay; format: cell-based
[7] = Prodrug activation assessed as mushroom tyrosinase-mediated compound hydrolysis by measuring half life in presence of 100 U/ml of tyrosinase by HPLC analysis; conditions: agaricus bisporus
[8] = Half life in phosphate buffered saline at pH 7.4 by HPLC analysis; format: physicochemical
[9] = biological target: T1, mushroom tyrosinase (Agaricus bisporus, UniProt C7FF04+C7FF05+O42713+Q00024); assay: (§1) Drug metabolism assessed as mushroom tyrosinase-mediated compound oxidation by Michaelis-Menten plot analysis; format: ADME; conditions: mushroom tyrosinase
[10] = biological target: T2, Mushroom tyrosinase (Agaricus bisporus, UniProt O42713+Q00024+C7FF04+C7FF05); assay: as §1; format: ADME
[11] = biological target: T2, Mushroom tyrosinase; assay: Ratio of Kcat to Km for mushroom tyrosinase-mediated compound oxidation; format: ADME
[12] = system: Plasma; assay: Retention time of the compound in 80% human plasma by HPLC method; format: ADME, cell-free
[13] = Prodrug activation assessed as mushroom tyrosinase-mediated compound hydrolysis by measuring Pseudo first-order rate constants in presence of 300 U/ml of tyrosinase by HPLC analysis; conditions: agaricus bisporus
[14] = biological target: T1, mushroom tyrosinase; assay: Drug metabolism assessed as mushroom tyrosinase-mediated compound consumption in presence of 300 U/ml of tyrosinase by HPLC method; format: ADME; conditions: read-out: Drug metabolism
[15] = Prodrug activation assessed as mushroom tyrosinase-mediated compound hydrolysis by measuring half life in presence of 300 U/ml of tyrosinase by HPLC analysis; conditions: agaricus bisporus
[16] = biological target: T2, Mushroom tyrosinase; assay: Drug metabolism assessed as mushroom tyrosinase-mediated compound hydrolysis by measuring retention time by HPLC method; format: ADME
[17] = Retention time of the compound in phosphate buffered saline at pH 7.4 by HPLC method
[18] = Prodrug activation assessed as mushroom tyrosinase-mediated compound hydrolysis by measuring Pseudo first-order rate constants in presence of 100 U/ml of tyrosinase by HPLC analysis; conditions: agaricus bisporus
[19] = biological target: T1, mushroom tyrosinase; assay: Drug metabolism assessed as mushroom tyrosinase-mediated compound consumption in presence of 100 U/ml of tyrosinase by HPLC method; format: ADME; conditions: read-out: Drug metabolism
[20] = Stability of the compound in phosphate buffered saline at pH 7.4 assessed as parent compound remaining measured after 8 days by HPLC analysis; format: physicochemical; conditions: read-out: Stability
[21] = system: O=C(O)Cc1ccc(O)cc1; assay: (§2) Substrate activity at mushroom tyrosinase monophenolase activity by spectrophotometry based Michaelis-Menten plot analysis; conditions: Agaricus bisporus
[22] = system: N[C@@H](Cc1ccc(O)cc1)C(=O)O; assay: as §2; conditions: Agaricus bisporus
[23] = system: NCCc1ccc(O)c(O)c1; assay: as §2; conditions: Agaricus bisporus

Chain of Mushroom tyrosinase (Agaricus bisporus) (C7FF05 whole entry, looked up): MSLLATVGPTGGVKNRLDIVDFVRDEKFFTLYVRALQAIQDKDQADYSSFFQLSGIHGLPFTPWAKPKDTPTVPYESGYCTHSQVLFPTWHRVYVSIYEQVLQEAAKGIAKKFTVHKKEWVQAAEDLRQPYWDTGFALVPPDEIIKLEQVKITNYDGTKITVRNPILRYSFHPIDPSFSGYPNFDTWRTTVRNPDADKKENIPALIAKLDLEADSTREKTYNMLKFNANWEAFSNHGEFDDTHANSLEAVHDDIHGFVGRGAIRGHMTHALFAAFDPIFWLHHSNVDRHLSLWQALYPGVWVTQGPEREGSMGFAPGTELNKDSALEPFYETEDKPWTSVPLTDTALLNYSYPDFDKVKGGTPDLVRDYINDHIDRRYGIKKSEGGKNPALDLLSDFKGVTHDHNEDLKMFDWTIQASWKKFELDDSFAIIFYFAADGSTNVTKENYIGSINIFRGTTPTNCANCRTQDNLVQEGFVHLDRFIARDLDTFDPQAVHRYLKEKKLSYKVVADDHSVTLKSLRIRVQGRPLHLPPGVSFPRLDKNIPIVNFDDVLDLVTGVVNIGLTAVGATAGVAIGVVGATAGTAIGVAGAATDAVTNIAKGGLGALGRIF
Chain of Mushroom tyrosinase (Agaricus bisporus) (C7FF04 whole entry, looked up): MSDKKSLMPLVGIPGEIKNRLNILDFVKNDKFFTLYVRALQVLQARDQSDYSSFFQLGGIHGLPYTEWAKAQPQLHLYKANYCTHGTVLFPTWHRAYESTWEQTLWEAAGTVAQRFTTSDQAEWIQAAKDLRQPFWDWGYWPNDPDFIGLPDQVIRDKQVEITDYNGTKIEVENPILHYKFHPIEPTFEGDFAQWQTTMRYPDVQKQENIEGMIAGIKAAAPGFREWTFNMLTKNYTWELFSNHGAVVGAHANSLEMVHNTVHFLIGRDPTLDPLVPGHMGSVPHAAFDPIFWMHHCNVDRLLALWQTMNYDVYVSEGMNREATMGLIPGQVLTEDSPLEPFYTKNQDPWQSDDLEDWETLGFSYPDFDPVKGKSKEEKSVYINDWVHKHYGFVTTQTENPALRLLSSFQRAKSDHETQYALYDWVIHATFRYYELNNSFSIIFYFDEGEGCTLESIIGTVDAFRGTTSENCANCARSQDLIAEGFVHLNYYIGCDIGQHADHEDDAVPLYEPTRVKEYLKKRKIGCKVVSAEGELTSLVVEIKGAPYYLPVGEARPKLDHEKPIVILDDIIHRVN
Chain of Mushroom tyrosinase (Agaricus bisporus) (Q00024 whole entry, looked up): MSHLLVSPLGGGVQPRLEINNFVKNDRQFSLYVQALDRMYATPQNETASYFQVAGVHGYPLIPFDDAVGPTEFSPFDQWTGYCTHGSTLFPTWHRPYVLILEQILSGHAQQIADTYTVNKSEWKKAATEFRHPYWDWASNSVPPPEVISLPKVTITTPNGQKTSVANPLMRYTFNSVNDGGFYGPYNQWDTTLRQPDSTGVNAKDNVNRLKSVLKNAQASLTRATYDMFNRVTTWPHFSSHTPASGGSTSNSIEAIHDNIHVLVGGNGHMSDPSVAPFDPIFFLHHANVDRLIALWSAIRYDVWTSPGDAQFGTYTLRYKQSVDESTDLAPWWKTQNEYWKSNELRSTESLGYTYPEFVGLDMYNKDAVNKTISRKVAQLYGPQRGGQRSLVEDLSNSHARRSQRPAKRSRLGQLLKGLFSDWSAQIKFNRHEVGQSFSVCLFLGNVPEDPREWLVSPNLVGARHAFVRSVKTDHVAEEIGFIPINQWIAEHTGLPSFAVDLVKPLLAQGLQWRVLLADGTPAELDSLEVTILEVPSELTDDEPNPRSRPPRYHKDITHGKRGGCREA
Chain of Mushroom tyrosinase (Agaricus bisporus) (O42713 whole entry, looked up): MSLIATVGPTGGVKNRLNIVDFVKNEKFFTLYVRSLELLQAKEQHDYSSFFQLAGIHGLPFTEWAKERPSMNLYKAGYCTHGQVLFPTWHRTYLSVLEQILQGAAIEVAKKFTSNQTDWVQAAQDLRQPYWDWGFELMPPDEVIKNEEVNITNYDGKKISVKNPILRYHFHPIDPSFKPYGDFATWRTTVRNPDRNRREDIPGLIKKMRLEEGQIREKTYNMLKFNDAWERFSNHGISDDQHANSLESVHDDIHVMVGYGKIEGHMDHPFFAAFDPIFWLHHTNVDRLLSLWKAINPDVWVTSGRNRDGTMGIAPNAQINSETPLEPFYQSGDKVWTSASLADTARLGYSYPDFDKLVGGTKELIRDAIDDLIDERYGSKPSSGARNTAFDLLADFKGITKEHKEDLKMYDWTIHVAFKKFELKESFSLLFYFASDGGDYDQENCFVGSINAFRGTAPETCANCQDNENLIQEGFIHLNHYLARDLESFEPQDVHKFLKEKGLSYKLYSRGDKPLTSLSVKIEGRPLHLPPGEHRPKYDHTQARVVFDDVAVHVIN

| Compound | half-life [1] [h] | pIC50 [2] | pIC50 [3] | logD at 0.5 h [4] | half-life [5] [h] | pIC50 [6] | t1/2 [7] [h] | half-life [8] [h] | other results |
| --- | --- | --- | --- | --- | --- | --- | --- | --- | --- |
| CN(/N=N/c1nc(OCc2ccccc2)c2nc[nH]c2n1)C(=O)Oc1ccccc1 | 0.4 to 58.3 | – | – | – | – | – | – | – | – |
| CN(/N=N/c1nc(OCc2ccccc2)c2nc[nH]c2n1)C(=O)c1cccnc1 | 22.1 to 58.3 | – | – | – | – | – | – | – | – |
| CCOc1nc(/N=N/N(C)C(=O)Oc2ccc(C(=O)OC)cc2)nc2[nH]cnc12 | 0.4 to 58.3 | – | – | – | – | – | – | – | – |
| Cn1nnc2c(C(N)=O)ncn2c1=O [TEMOZOLOMIDE] | – | < 4.12 | < 4.12 | – | – | – | – | – | – |
| CCOc1nc(/N=N/N(C)C(=O)Oc2ccc([N+](=O)[O-])cc2)nc2[nH]cnc12 | 0.4 to 58.3 | – | – | – | – | – | – | – | – |
| COC(=O)c1ccc(/N=N/N(C)C(=O)CCCCc2ccc(O)cc2)cc1 | – | < 4.12 | < 4.12 | 3.9 | 17.4 | 3.82 to 4.12 | 0.06 | 124 | Km [9]: 1080 µM; Kcat [10]: 0.013 s⁻¹; Vmax [10]: 0.018 µM/min; Kcat/Km [11]: 13.88 M⁻¹ s⁻¹ |
| CN(/N=N/c1nc(OCc2ccccc2)c2nc[nH]c2n1)C(=O)c1ccc([N+](=O)[O-])cc1 | 22.1 to 58.3 | – | – | – | – | – | – | – | – |
| CN(/N=N/c1ccc(C#N)cc1)C(=O)CCc1cccc(O)c1 | – | < 4.12 | < 4.12 | 3.24 | 2.7 | 3.82 to 4.12 | – | 60.1 | Retention_time [12]: 8.8 min; K [13]: 9.9 ×10⁻⁶ /s; metabolised [14]: 91.1%; t1/2 [15]: 19.45 h |
| CCOc1nc(/N=N/N(C)C(=O)Oc2ccc(S(N)(=O)=O)cc2)nc2[nH]cnc12 | 0.4 to 58.3 | – | – | – | – | – | – | – | – |
| CC(=O)Nc1ccc(OC(=O)N(C)/N=N/c2nc(OCc3ccccc3)c3nc[nH]c3n2)cc1 | 0.4 to 58.3 | – | – | – | – | – | – | – | – |
| COC(=O)c1ccc(/N=N/N(C)C(=O)CCc2cccc(O)c2)cc1 | – | < 4.12 | < 4.12 | 3.42 | 7.8 | 3.82 to 4.12 | – | 94.7 | Retention_time [16]: 12.3 min; K [13]: 9.1 ×10⁻⁶ /s; metabolised [14]: 97.5%; Retention time [17]: 12.5 min; t1/2 [15]: 21.17 h |
| CN(/N=N/c1ccc(C(N)=O)cc1)C(=O)CCc1ccc(O)cc1 | – | < 4.12 | < 4.12 | 2.8 | 48.5 | 3.82 to 4.12 | 0.0767 to 0.077 | 118 | K [18]: 2.5 ×10⁻³ /s; metabolised [19]: 100% |
| CCOC(=O)N(C)/N=N/c1nc(OCc2ccccc2)c2nc[nH]c2n1 | 0.4 to 58.3 | – | – | – | – | – | – | – | – |
| CN(/N=N/c1ccc(C#N)cc1)C(=O)CCCCc1ccc(O)cc1 | – | < 4.12 | < 4.12 | 4.3 | 11.8 | 3.82 to 4.12 | 0.07 | 82.5 | Retention_time [16]: 9.8 min; Km [9]: 860 µM; Kcat [10]: 0.009 s⁻¹; Vmax [10]: 0.012 µM/min; Kcat/Km [11]: 1.39 M⁻¹ s⁻¹ |
| CC(=O)c1ccc(/N=N/N(C)C(=O)CCCCc2ccc(O)cc2)cc1 | – | < 4.12 | < 4.12 | 4 | 32.7 | < 4.00 | 0.0218 | – | remaining at 192 h [20]: 100% |
| CC(=O)c1ccc(/N=N/N(C)C(=O)CCc2ccc(OC(=O)CCc3ccc(O)cc3)cc2)cc1 | – | – | – | – | – | – | 0.0917 | – | K [18]: 2.1 ×10⁻³ /s |
| CC(=O)c1ccc(/N=N/N(C)C(=O)CCc2ccc(O)cc2)cc1 | – | < 4.12 | < 4.12 | 3.05 | 14.6 | 3.82 to 4.12 | 0.06 to 0.061 | 123 | K [18]: 3.2 ×10⁻³ /s; metabolised [19]: 100% |
| CN(/N=N/c1ccc(C#N)cc1)C(=O)CCc1ccc(O)cc1 | – | < 4.12 | < 4.12 | 3.4 | 5.8 | 3.82 to 4.12 | 0.025 | 76 | K [18]: 7.9 ×10⁻³ /s; metabolised [19]: 100% |
| COC(=O)c1ccc(/N=N/N(C)C(=O)CCc2ccc(OC(=O)CCc3ccc(O)cc3)cc2)cc1 | – | – | – | – | – | – | 0.107 | – | K [18]: 1.8 ×10⁻³ /s |
| Cc1ccc(/N=N/N(C)C(=O)CCCCc2ccc(O)cc2)cc1 | – | 4.24 | 4.19 | 4 | 79.7 | < 3.82 | 0.0123 | – | remaining at 192 h [20]: 100% |
| CN(/N=N/c1nc(OCc2ccccc2)c2nc[nH]c2n1)C(=O)c1ccccc1 | 22.1 to 58.3 | – | – | – | – | – | – | – | – |
| CN(/N=N/c1ccc(Br)cc1)C(=O)CCCCc1ccc(O)cc1 | – | 4.28 | 4.34 | 4.32 | 162 | < 4.12 | 0.108 | – | remaining at 192 h [20]: 100% |
| Nc1ccccc1 [ANILINE] | – | – | – | – | – | – | – | – | Retention_time [12]: 2 min; Retention time [16]: 2 to 2.1 min; Retention time [17]: 2.4 min |
| CN(/N=N/c1nc(OCc2ccccc2)c2nc[nH]c2n1)C(=O)Oc1ccc(C(N)=O)cc1 | 0.4 to 58.3 | – | – | – | – | – | – | – | – |
| CN(/N=N/c1ccc(C#N)cc1)C(=O)Cc1ccc(O)cc1 | – | – | – | 2.99 | 1.48 | – | 0.467 to 0.468 | 48 | – |
| COC(=O)c1ccc(/N=N/N(C)C(=O)CCc2ccc(O)cc2)cc1 | – | < 4.12 | < 4.12 | 3.23 | 7.3 | 3.82 to 4.12 | 0.041 to 0.0417 | 102 | K [18]: 4.7 ×10⁻³ /s; metabolised [19]: 100% |
| Mushroom tyrosinase (Agaricus bisporus) (from UniProt O42713+Q00024+C7FF04+C7FF05) | – | – | – | – | – | – | – | – | Km [21]: 1910 µM; Km [22]: 250 µM; Km [23]: 280 µM |
| CC(=O)N(C)/N=N/c1nc(OCc2ccccc2)c2nc[nH]c2n1 | 22.1 to 58.3 | – | – | – | – | – | – | – | – |
| CN(/N=N/c1ccc(C(N)=O)cc1)C(=O)CCCCc1ccc(O)cc1 | – | < 4.12 | < 4.12 | 3.6 | 55.4 | 3.82 to 4.12 | 0.0967 | 182 | – |
| CCOC(=O)c1ccc(/N=N/N(C)C(=O)CCCCc2ccc(O)cc2)cc1 | – | < 4.12 | < 4.12 | 4.5 | 26.3 | < 3.82 | 0.08 | – | remaining at 192 h [20]: 100% |
